Measured values published in patent US6548543B1, “Remedies or preventives containing cyclopentenone compounds as the active ingredient” (Takara Shuzo Co., Ltd., priority 1998, dated 2003).

How the values were obtained:
[1] = molecular target: T1, topoisomerase II (Homo sapiens, UniProt P11388); assay: Topoisomerase II inhibition, pBR322 DNA relaxation; assay type: biochemical; details: 37° C., 30 minutes
T1 construct: purchased TopoGEN
Experimental: (1) 2 μl of topoisomerase II (TopoGEN; 2 units/μl), 2 μl of 10-fold concentrated buffer [0.5 M Tris-HCl (pH 8.0), 1.2 M KCl, 0.1 M MgCl2, 2.5 mM adenosine triphosphate, 5 mM dithiothreitol], 2 μl of 0.1% bovine serum albumin (Takara Shuzo), 11 μl of distilled water and 2 μl of distilled water (control) or 2 μl of one of aqueous solutions of dipropionylcyclopentenone, diisobutyrylcyclopentenone, dibenzoylcyclopentenone, dihexanoylcyclopentenone, di-2-hexenoylcyclopentenone, dimethoxyacetylcyclopentenone, dimethylfumarylcyclopentenone or dimethylmaleylcyclopentenone at varying concentrations were mixed together. 1 μl of 0.25 μg/μl pBR322 DNA (Takara Shuzo) was added thereto. The resulting mixture was reacted at 37° C. After reacting for 30 minutes, 2 μl of an aqueous solution containing 1% sodium dodecyl sulfate, 50% glycerol and 0.02% Bromophenol Blue was added thereto to stop the reaction.
20 μl of the reaction mixture was applied to 1% agarose gel prepared using agarose L03 (Takara Shuzo) and TAE buffer [40 mM Tris, 5 mM sodium acetate, 1 mm ethylenediaminetetraacetic acid disodium salt (EDTA); adjusted to pH 7.8 using acetic acid] and electrophoresed in TAE buffer. After electrophoresis, the gel was soaked in a 1 μg/ml aqueous ethidium bromide solution. The gel was exposed to ultraviolet rays to visualize the electophoretic pattern of DNA.

[2] = system: spleen lymphocytes stimulated with Ehrlich ascites carcinoma cells; assay: Cancer cell-specific proliferation of spleen lymphocytes from treated tumor-bearing mice; assay type: in vivo, ddY mice; details: for 3H-thymidine uptake: 10 mg/kg intraperitoneal
Experimental: ddY mice (female, 7 weeks old) were purchased from Japan SLC and pre-bred 1 week before using in experiments.
1×10^6 Ehrlich ascites carcinoma cells were intraperitoneally inoculated to each mouse. 10 mg/kg of cyclopentene, 30 mg/kg of GM or 10 mg/kg of dipropionylcyclopentene was intraperitoneally administered to the mouse on the day after the inoculation. Saline was administered to a control mouse.
A spleen was taken out from the mouse 10 days after the inoculation with cancer cells, finely minced and suspended in RPMI-1640 medium (Gibco) containing 10% FCS (HyClone) to obtain a single cell suspension. Adhesive cells in the cell suspension adhered to a plastic Petri dish were removed and non-adhesive cells were used as spleen lymphocytes.
The spleen lymphocytes were suspended in RPMI-1640 medium containing 10% FCS at a concentration of 2×10^6/ml. 100 μl/well of the suspension was seeded into a microtiter plate.
Stimulated cells were prepared as follows. Mitomycin C (Kyowa Hakko Kogyo) was added to a concentration of 50 μg/ml to Ehrlich ascites carcinoma cells suspended in RPMI-1640 medium at a concentration of 2×10^6 cells/ml. The cells were treated at 37° C. for 30 minutes, washed twice and then suspended in RPMI-1640 medium containing 10% FCS to prepare stimulated cells at a concentration of 2×10^6 cells/ml. 100 μl of the thus prepared stimulated cells was overlaid onto each well of the plate into which 100 μl/well of the spleen lymphocytes had been added. The plate was incubated at 37° C. for 5 days in a 5% CO2 incubator. 37 kBq of ^3H-thymidine (Daiichi Pure Chemicals) was added to the well to pulse-label the cells on the day before the completion of the cultivation. After cultivation, the cells were harvested on a glass filter to measure the radioactivity.

[3] = system: tumor necrosis factor (TNF)-α; assay: Endotoxin shock model, serum TNF-α after LPS; assay type: in vivo, CDF1 mice
Experimental: (1) A model for endotoxin shock was constructed using CDF1 mice (8 weeks old, female, purchased from Japan SLC). Distilled water (control), or 10 mg/kg of diisopropionylcyclopentenone or diisobutyrylcyclopentenone was subcutaneously administered to a mouse. 20 μg of lipopolysaccharide (LPS; Sigma) was intraperitoneally administered to each mouse 30 minutes after the administration. Blood was collected from the mouse 1.5 hours after the administration with LPS. The amount of tumor necrosis factor (TNF)-α in a serum separated from the collected blood was measured using a commercially available ELISA kit (R&D). Each group consisted of 4 mice.
(2) A model for endotoxin shock was constructed by intraperitoneally administering 20 μg of LPS to a CDF1 mouse (8 weeks old, female). 30 or 100 mg/kg of dipropionylcyclopentenone or diisobutyrylcyclopentenone was orally administered 30 minutes before the administration with LPS. Blood was collected from the mouse 1.5 hours after the administration with LPS. The amount of TNF-α in a serum separated from the collected blood was measured using an ELISA kit. Each group consisted of 4 mice.

[4] = system: Meth A tumor cells; assay: Survival of mice given Meth A tumor cells, single dose; assay type: in vivo, BALB/c mouse; details: single dose 10 mg/kg intraperitoneal
Experimental: (1) Mouse leukemia P-388 (1.1×10^6 cells/mouse) was intraperitoneally administered to a 7-weeks old female DBA/2 mouse. Immediately after the administration, a single dose of 10 mg/kg dipropionylcyclopentenone was intraperitoneally administered. On the other hand, saline was intraperitoneally administered to a control group in a similar manner. Survival number of mice, average days of survival and prolongation rate were calculated for 2 groups each consisting of 8 mice.
Similarly, examination was carried out using a system of Meth A tumor cells: BALB/c mouse. As a result, the average days of survival were 13.4 days for the control group. The average days of survival were 16.9 days for the group administered with dipropionylcyclopentenone.

T1 sequence (P11388 whole entry): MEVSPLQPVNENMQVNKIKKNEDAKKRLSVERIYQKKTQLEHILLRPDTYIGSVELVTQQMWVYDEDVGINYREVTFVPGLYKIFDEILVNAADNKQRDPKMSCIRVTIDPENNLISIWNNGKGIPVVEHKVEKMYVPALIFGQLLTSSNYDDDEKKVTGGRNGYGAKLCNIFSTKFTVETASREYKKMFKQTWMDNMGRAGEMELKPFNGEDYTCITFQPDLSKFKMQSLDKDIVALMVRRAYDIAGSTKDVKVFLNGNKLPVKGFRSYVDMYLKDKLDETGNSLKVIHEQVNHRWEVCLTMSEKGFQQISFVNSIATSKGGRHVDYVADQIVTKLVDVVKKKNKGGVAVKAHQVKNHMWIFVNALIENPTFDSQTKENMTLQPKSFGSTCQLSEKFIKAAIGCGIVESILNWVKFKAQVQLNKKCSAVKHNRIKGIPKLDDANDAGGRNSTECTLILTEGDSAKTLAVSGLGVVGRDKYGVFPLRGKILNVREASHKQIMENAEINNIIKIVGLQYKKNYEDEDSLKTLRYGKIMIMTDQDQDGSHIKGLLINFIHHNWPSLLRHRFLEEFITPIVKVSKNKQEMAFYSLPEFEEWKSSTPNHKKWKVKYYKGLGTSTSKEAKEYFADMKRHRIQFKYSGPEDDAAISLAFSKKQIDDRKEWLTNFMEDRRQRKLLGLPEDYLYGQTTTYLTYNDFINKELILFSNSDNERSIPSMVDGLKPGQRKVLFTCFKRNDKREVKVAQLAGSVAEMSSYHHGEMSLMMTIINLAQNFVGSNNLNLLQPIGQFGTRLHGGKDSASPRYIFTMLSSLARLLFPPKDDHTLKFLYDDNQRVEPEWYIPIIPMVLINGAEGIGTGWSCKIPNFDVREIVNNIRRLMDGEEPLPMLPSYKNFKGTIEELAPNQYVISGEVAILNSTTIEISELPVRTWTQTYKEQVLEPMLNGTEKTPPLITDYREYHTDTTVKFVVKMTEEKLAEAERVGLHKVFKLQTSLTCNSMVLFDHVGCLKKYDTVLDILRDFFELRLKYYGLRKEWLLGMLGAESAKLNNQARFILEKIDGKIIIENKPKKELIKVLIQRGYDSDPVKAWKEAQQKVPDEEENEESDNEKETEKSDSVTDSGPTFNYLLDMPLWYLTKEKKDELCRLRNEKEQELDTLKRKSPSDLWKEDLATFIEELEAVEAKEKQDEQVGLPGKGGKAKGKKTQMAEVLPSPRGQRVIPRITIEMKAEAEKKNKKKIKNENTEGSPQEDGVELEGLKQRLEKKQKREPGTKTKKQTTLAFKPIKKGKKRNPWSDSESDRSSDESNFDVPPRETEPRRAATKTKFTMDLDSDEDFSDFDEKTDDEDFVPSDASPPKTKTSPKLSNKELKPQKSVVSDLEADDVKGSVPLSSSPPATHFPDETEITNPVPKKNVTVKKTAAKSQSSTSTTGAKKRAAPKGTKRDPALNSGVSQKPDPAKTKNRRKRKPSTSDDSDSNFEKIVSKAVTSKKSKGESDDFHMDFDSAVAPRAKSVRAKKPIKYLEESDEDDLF

In the case of `CCC(=O)OC1C=CC(=O)C1OC(=O)CC` (centres unmarked), the “Concentration at which change of DNA from superhelical type to relaxed type was partially or completely inhibited” value [1] is reported as no less than 0.1 µM, the 3H-thymidine uptake ([2]; no stimulation with cancer cell) is reported as 9250 CPM and the 3H-thymidine uptake ([2]; stimulation with cancer cell) is reported as 20748 CPM. The “Growth of spleen lymphocytes on stimulation with cancer cells (statement)” value ([2]; mice administered intraperitoneally) was “significantly enhanced”, the “TNF-α production compared with control group (statement)” value ([3]; 10 mg/kg subcutaneous) was “significantly suppressed” and the “Amount of TNF mean ± SE” value ([3]; 10 mg/kg subcutaneous 30 minutes before LPS, serum 1.5 hours after LPS) was 4.61 ± 0.57 ng/mL. The “TNF mean ± SE” value ([3]; 30 mg/kg oral 30 minutes before LPS, serum 1.5 hours after LPS) was 2.95 ± 0.14 ng/mL, the “TNF mean ± SE” value ([3]; 100 mg/kg oral 30 minutes before LPS, serum 1.5 hours after LPS) was 1.26 ± 0.15 ng/mL and the “TNF production compared with control group (statement)” value ([3]; oral 30 or 100 mg/kg) was “suppressed the TNF production in a dose-dependent manner”. For the same compound, the “Average days of survival” value [4] was 16.9 days and the Prolongation rate [4] was 126.2%.
